In patent US20120035187A1 (priority 2009, published 2012):
Like-named read-outs stand apart in the source and are kept apart here. Marks after values point to notes of the source that are not given here.

What was measured:
[1] = target: T1, acetylcholine esterase (AchE) (Rattus norvegicus, UniProt P37136); assay: biochemical; type: biochemical; conditions: for action of inhibiting AchE activity (in words): Experiment 14, comparison of NK-4 analogues and NK-150
T1 sequence (P37136 32-614): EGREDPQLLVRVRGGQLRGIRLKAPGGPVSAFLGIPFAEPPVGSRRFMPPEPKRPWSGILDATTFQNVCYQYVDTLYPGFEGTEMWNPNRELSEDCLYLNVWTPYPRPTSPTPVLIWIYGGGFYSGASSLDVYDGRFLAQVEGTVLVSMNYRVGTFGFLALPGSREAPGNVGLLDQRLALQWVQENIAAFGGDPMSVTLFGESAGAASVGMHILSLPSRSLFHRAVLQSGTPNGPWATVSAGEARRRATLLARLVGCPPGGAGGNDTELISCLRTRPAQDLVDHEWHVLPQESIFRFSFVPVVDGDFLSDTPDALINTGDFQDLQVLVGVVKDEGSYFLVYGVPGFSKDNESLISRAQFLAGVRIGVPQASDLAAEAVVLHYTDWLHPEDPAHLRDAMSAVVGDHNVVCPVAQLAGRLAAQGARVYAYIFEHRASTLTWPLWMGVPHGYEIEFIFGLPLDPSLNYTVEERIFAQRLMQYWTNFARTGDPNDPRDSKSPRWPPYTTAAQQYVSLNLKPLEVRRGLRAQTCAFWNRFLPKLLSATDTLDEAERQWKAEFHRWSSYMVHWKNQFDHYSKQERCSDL

[2] = test system: primary neuron (neuron, astrocyte and microglia) prepared from brain cortex of a rat fetus; assay: Hydrogen peroxide disorder in primary neuron; type: cell-based; conditions: concrete data not shown
Excerpt: Though concrete data is not shown, using primary neuron (neuron, astrocyte and microglia) prepared from brain cortex of a rat fetus in place of PC12-HS cells, the influence of NK-4, NK-26, NK-234, NK-19 and NK-150 on amyloid β fragment disorder and hydrogen peroxide disorder was investigated.

[3] = test system: PC12-HS cells; assay: Cytotoxicity by amyloid β fragment, cell survival (Evaluation C); type: cell-based; conditions: for Cell survival percentage (%): PC12-HS cells + amyloid β fragment
Experimental: A plurality of peptide fragments (called “AMYLOID β FRAGMENT” commercialized by AnaSpec, Inc., CA, USA, each peptide having the amino acid sequence of SEQ ID NO:1), which have an amino acid sequence positioning from 25th to 35th from the N-terminus of amyloid R peptide with human origin and have been recognized as a main factor of neurocyte death in Alzheimer's disease, were diluted with phosphate buffered saline (PBS) to give a concentration of 2 mM, and used after being aged at 37° C. for six hours to coagulate them to increase their cytotoxicity before use. […] Viability (%) of cells in each well was determined and shown in Table 1 by calculating a relative value when the fluorescent intensity of the control was regarded as 100%. While, the supernatant of cell culture, which had been cultured under the same conditions as above, was removed, and the resulting cells were fixed by the addition of 1% by volume of glutaraldehyde, which had been prepared by diluting with PBS, in a volume of 100 μl/well for 30 min. Thereafter, the cells were stained with […] Hoechst 33258 dye commercialized by SIGMA Corporation, Tokyo, Japan, for five min, observed at a magnitude corresponding to a visual filed containing about 100 cells under a phase contrast microscope and a fluorescent microscope, and counted. The occupied percentage (%) of cells with apoptosis against the total cells in one visual field was calculated and the data was also shown in Table 1. The judgment of cells with apoptosis was made with an index of fragmentation of cell nuclei and chromatin aggregation within the nuclei.
Then, the effect of the above-compounds' concentrations on the cytotoxicity by amyloid β fragment was further investigated. The above 6-compounds and NK-4 were used as test samples, and the protective effects of these compounds against cytotoxicity by amyloid β fragment were evaluated by the same conditions as used in Evaluation C in Experiment 3, except for adding each compound to a well inoculated with PC12-HS cells to give a final concentration as shown in Table 7.

[4] = target: T2, human amyloid β peptide (Homo sapiens, UniProt P05067); assay: Agglutination of amyloid β peptide, thioflavine T method; type: biochemical; conditions: 45 μl of 200 nM test sample solution + 15 μl amyloid β peptide solution, 37° C., six days, thioflavine T fluorescence; for inhibition at 0.2 µM: read-out: Inhibition rate (%) of agglutination of amyloid β peptide
T2 construct: purchased AnaSpec Inc., CA, USA
T2 sequence (P05067 672-711): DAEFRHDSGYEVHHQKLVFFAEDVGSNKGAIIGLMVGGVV
Experimental: The filtrate was made into a test sample solution by adjusting the concentration to 200 nM using Tris-HCl buffer.
The agglutination of amyloid β peptide was measured by a method using thioflavine T (see Hilal A. Lashuel et al., Journal of Biological Chemistry, Vol. 277, No. 45, pp. 42881-42890 (2002)). Thioflavine T binds to […] structure of agglutinated amyloid β peptide and produces fluorescence. The amount of the fluorescence was determined using a fluorometric plate reader and used as an index of the agglutination of amyloid β peptide. When the agglutination of amyloid β peptide is inhibited by the test sample, fluorescence of Thioflavine T is decreased. The effects of the test samples on the agglutination of amyloid β peptide were investigated by the method. A human amyloid β peptide, having the amino acid sequence of SEQ ID NO:2 consisting of 40 amino acids, commercialized by AnaSpec Inc., CA, USA, was dissolved in sterilized distilled water to give a concentration of 400 μM for use. Test samples were diluted with Tris-HCl buffer. In a reaction vessel, 15 μl of […] admixed with 45 μl of a 200 nM test sample solution and allowed to react at 37° C. for six days. After the reaction, 50 μl of the reaction mixture was withdrawn, admixed with 450 μl of a 10 μM Thioflavine T solution, and after 30 minutes, the resulting fluorescence was measured using a fluorometer (excitation wavelength: 450 nm, […]: 482 nm). The fluorescent intensity of Thioflavine T only was regarded as 0%, and that of the solution, prepared by mixing 15 μl of a […] amyloid β peptide solution and 45 μl of Tris-HCl buffer and allowing to react at 37° C. for six days, was regarded as 100%. Inhibition rate (%) of the agglutination of amyloid β peptide was determined by the steps of measuring the relative fluorescence intensity in the case of using each test sample solution for the reaction, and subtracting the measured value from 100%.

[5] = final concentration of compound 12.5 ng/ml
[6] = final concentration of compound 50 ng/ml
[7] = final concentration of compound 200 ng/ml
[8] = final concentration of compound 800 ng/ml
[9] = compound concentration 0.78 μg/ml, read-out: Residual ratio of AchE activity (%)
[10] = compound concentration 1.56 μg/ml, read-out: Residual ratio of AchE activity (%)
[11] = compound concentration 3.13 μg/ml, read-out: Residual ratio of AchE activity (%)
[12] = compound concentration 6.25 μg/ml, read-out: Residual ratio of AchE activity (%)
[13] = compound concentration 12.5 μg/ml, read-out: Residual ratio of AchE activity (%)
[14] = compound concentration 25 μg/ml, read-out: Residual ratio of AchE activity (%)
[15] = concentration of compound 0.78 μg/ml
[16] = concentration of compound 1.56 μg/ml
[17] = concentration of compound 3.13 μg/ml
[18] = concentration of compound 6.25 μg/ml
[19] = concentration of compound 12.5 μg/ml
[20] = concentration of compound 25 μg/ml
[21] = concentration of compound 50 μg/ml
[22] = concentration that suppresses AchE activity by 50%, calculated from residual ratios

CCCCN1C=C/C(=C/C=C(/C=C/c2cc[n+](CCCC)c3ccccc23)c2cc[n+](CCCC)c3ccccc23)c2ccccc21 [NK-26]
remaining activity at 0.78 µg/mL ([1]; concentration of compound 0.78 μg/ml, read-out: Residual ratio of AchE activity (%)): 94 ± 11%
remaining activity at 1.56 µg/mL ([1]; concentration of compound 1.56 μg/ml, read-out: Residual ratio of AchE activity (%)): 84 ± 9%
remaining activity at 3.13 µg/mL ([1]; concentration of compound 3.13 μg/ml, read-out: Residual ratio of AchE activity (%)): 88 ± 8%
remaining activity at 6.25 µg/mL ([1]; concentration of compound 6.25 μg/ml, read-out: Residual ratio of AchE activity (%)): 88 ± 7%
remaining activity at 12.5 µg/mL ([1]; concentration of compound 12.5 μg/ml, read-out: Residual ratio of AchE activity (%)): 69 ± 5%
remaining activity at 25 µg/mL ([1]; concentration of compound 25 μg/ml, read-out: Residual ratio of AchE activity (%)): 48 ± 4%
remaining activity at 50 µg/mL ([1]; concentration of compound 50 μg/ml, read-out: Residual ratio of AchE activity (%)): 36 ± 9%
IC50 ([1]; concentration that suppresses AchE activity by 50%, calculated from residual ratios, read-out: IC50 (μg/ml) (converted)): 37.6 µM
suppressing hydrogen peroxide disorder [2]: actions of suppressing

CC[n+]1ccccc1/C=C/c1ccc(N(C)C)cc1 [NK-557]
Cell survival percentage (%) [3, 5]: 36 ± 3%
Cell survival percentage (%) [3, 6]: 114 ± 9%
Cell survival percentage (%) [3, 7]: 94 ± 11%
Cell survival percentage (%) [3, 8]: 73 ± 1%
inhibition at 0.2 µM [4]: 95%
remaining activity at 0.78 µg/mL [1, 9]: 110 ± 1%
remaining activity at 1.56 µg/mL [1, 10]: 107 ± 2%
remaining activity at 3.13 µg/mL [1, 11]: 97 ± 5%
remaining activity at 6.25 µg/mL [1, 12]: 97 ± 3%
remaining activity at 12.5 µg/mL [1, 13]: 97 ± 4%
remaining activity at 25 µg/mL [1, 14]: 88 ± 9%

CCN1C=CC(=CC=C(C=Cc2cc[n+](CC)c3ccccc23)c2cc[n+](CC)c3ccccc23)c2ccccc21.[I-].[I-] [NK-4]
Survibal percentage of cells when admixed with cytotoxic factor (%) Amyloid β fragment ([3]; NK-4 200 ng/ml): 129 ** %
Survibal percentage of cells when admixed with cytotoxic factor (%) Amyloid β fragment ([3]; NK-4 1000 ng/ml): 97 ** %
Survibal percentage of cells when admixed with cytotoxic factor (%) Amyloid β fragment ([3]; NK-4 5000 ng/ml): 97 ** %
minimum concentration exerting protection action against injury through amyloid β fragment ([3]; PC12-HS cells): 40 ng/mL
Cell survival percentage (%) [3, 5]: 34 ± 1%
Cell survival percentage (%) [3, 6]: 69 ± 7%
Cell survival percentage (%) [3, 7]: 122 ± 32%
Cell survival percentage (%) [3, 8]: 89 ± 4%
Survibal percentage of cells when admixed with cytotoxic factor (%) Amyloid β fragment ([3]; PC12-HS cells, 50 μM amyloid β fragment, 3 days, NK-4 40 ng/ml): 89 ** %
Inhibition rate (%) of agglutination of amyloid β peptide [4]: 73%
IC50 (concentration of a compound inhibiting the AchE activity of 50%) ([1]; AchE solution from PC12-HS cells): 3.3 µg/mL
action of inhibiting AchE activity (in words) [1]: strongly inhibited AchE activity
Residual ratio of AchE activity (%) ([1]; compound concentration 0.78 μg/ml): 84 ± 6%
Residual ratio of AchE activity (%) ([1]; compound concentration 1.56 μg/ml): 66 ± 7%
Residual ratio of AchE activity (%) ([1]; compound concentration 3.13 μg/ml): 42 ± 4 %
Residual ratio of AchE activity (%) ([1]; compound concentration 6.25 μg/ml): 37 ± 10 %
Residual ratio of AchE activity (%) ([1]; compound concentration 12.5 μg/ml): 38 ± 2 %
Residual ratio of AchE activity (%) ([1]; compound concentration 25 μg/ml): 30 ± 8 %
Residual ratio of AchE activity (%) [1, 15]: 91 ± 4%
Residual ratio of AchE activity (%) [1, 16]: 47 ± 4 %
Residual ratio of AchE activity (%) [1, 17]: 41 ± 9 %
Residual ratio of AchE activity (%) [1, 18]: 38 ± 7 %
Residual ratio of AchE activity (%) [1, 19]: 24 ± 2 %
Residual ratio of AchE activity (%) [1, 20]: 25 ± 3 %
Residual ratio of AchE activity (%) [1, 21]: 22 ± 2 %
IC50 [1, 22]: 1.5 µg/mL
suppressing hydrogen peroxide disorder [2]: actions of suppressing

CCN1/C(=C/C=C(/C=C/c2sc3ccccc3[n+]2CC)c2sc3ccccc3[n+]2CC)Sc2ccccc21.[I-].[I-] [NK-100]
Cell survival percentage (%) [3, 5]: 47 ± 2%
Cell survival percentage (%) [3, 6]: 88 ± 12%
Cell survival percentage (%) [3, 7]: 60 ± 5%
Cell survival percentage (%) [3, 8]: 44 ± 4%
inhibition at 0.2 µM [4]: 99%
IC50 ([1]; AchE solution from PC12-HS cells, read-out: IC50 (concentration of a compound inhibiting the AchE activity of 50%) (converted)): 14.6 µM
remaining activity at 0.78 µg/mL [1, 9]: 77 ± 18%
remaining activity at 1.56 µg/mL [1, 10]: 68 ± 16%
remaining activity at 3.13 µg/mL [1, 11]: 67 ± 3%
remaining activity at 6.25 µg/mL [1, 12]: 60 ± 3%
remaining activity at 12.5 µg/mL [1, 13]: 49 ± 5%
remaining activity at 25 µg/mL [1, 14]: 43 ± 3%

COc1ccc2oc(/C=C/c3ccc(N(C)C)cc3)[n+](C)c2c1 [NK-1516]
Cell survival percentage (%) [3, 5]: 34 ± 5%
Cell survival percentage (%) [3, 6]: 29 ± 5%
Cell survival percentage (%) [3, 7]: 31 ± 3%
Cell survival percentage (%) [3, 8]: 70 ± 11%

CCCN1C=CC(=CC=C(C=Cc2cc[n+](CCC)c3ccccc23)c2cc[n+](CCC)c3ccccc23)c2ccccc21.[I-].[I-] [NK-234]
action of inhibiting AchE activity (in words) [1]: strongly inhibited AchE activity
Residual ratio of AchE activity (%) [1, 15]: 77 ± 21%
Residual ratio of AchE activity (%) [1, 16]: 77 ± 13%
Residual ratio of AchE activity (%) [1, 17]: 47 ± 11 %
Residual ratio of AchE activity (%) [1, 18]: 45 ± 9 %
Residual ratio of AchE activity (%) [1, 19]: 30 ± 12 %
Residual ratio of AchE activity (%) [1, 20]: 26 ± 6 %
Residual ratio of AchE activity (%) [1, 21]: 12 ± 6 %
IC50 [1, 22]: 3.0 µg/mL
suppressing hydrogen peroxide disorder [2]: actions of suppressing

CN(C)c1ccc(/C=C/c2oc3ccccc3[n+]2C)cc1 [NK-528]
Cell survival percentage (%) [3, 5]: 40 ± 9%
Cell survival percentage (%) [3, 6]: 36 ± 4%
Cell survival percentage (%) [3, 7]: 50 ± 10%
Cell survival percentage (%) [3, 8]: 111 ± 7%
